Reference: patent publication US20070042995A1, “Use of acetyl-d-aminoglycosamine in treatment of local lesions and systematic symptoms related to infections of virus or bacteria” (Third Military Medical University , Chinese People …, priority 2003, published 2007)

How the values were obtained:
[1] = test system: Pseudomonas aeruginosa, serotype 8; assay: Animal test of controlling local lesions and systemic symptoms caused by infection of microorganism; assay type: in vivo, rabbits; settings: 10% aqueous solution i.v., 2 ml, 3 times per day, 3 days; for rabbits survived: of 10 rabbits
Protocol: 10 rabbits were used in tests. The rabbits were administered with a culture of Gram-negative bacteria (Pseudomonas aeruginosa, serotype 8, wherein the bacterial number in the culture is about 3×10^11) in a dose of 10 ml per day for consecutive 3 days. […] The rabbits were intravenously administered with N-acetyl-D-glucosamine (10% aqueous solution) a dose of 2 ml every time, 3 times per day, for consecutive 3 days. […] In the test group, all 10 rabbits survived, while in the control group, 8/10 rabbits of the control group died within one week, and only 2 rabbits survived.
When N-acetyl-D-glucosamine was replaced with N-acetyl-D-glucosamine hydrochloride in the tests (other conditions were not changed), 7/10 rabbits of test group survived.

[2] = in vivo
From the text: The toxicological test of the compound of formula (I) includes: • 1. Acute toxicity test: including tests of oral administration, intravenous injection administration, and maximum limit amount for administration; • 2. Ames test; • 3. Micronucleus test of mouse bone marrow cell; • 4. Abnormality test of mouse sperm; • 5. Aberration test of mouse testis chromosome; • 6. Chronic lethal test; • 7. Sub-chronic toxicity (feed for 90 days) test; • 8. Traditional deformity-inducing test.

[3] = test system: Proteus Mirabilis; assay: Promoting wave test (bio-wave model); assay type: cell-based; settings: final concentration 0.5%, 37° C., 9 hours
From the text: 1. Experimental Materials and Method: 1.1 Sample: Pure Compound of Formula (I) 1.2 Experimental Materials: • Strain: Proteus Mirabilis that meets the following biochemical reaction characteristics; dynamics (+), urease (+), lactose (−), glucose (+), H2S (−), phenylalanine deaminase (+). • Culture medium; modified LB culture medium (components: 1% tryptones, 0.5% yeast extract, 1% sodium chloride, 0.1% glucose, 0.002% TTC, and pH=7.2 to 7.4). 1.3 Experimental Method: • Control sample: the Proteus Mirabilis were inoculated at the center of LB plate, incubating at 37° C. for 9 hours; • Test sample: the compound of formula (I) with a final concentration of 0.5% was added to the LB plate, then the Proteus Mirabilis were inoculated by the same method, and cultured at 37° C. for 9 hours. 2. […] This wave-promoting function may explain the effects of using N-acetyl-D-glucosamine or pharmaceutically acceptable salts thereof for treating and controlling local lesions and systematic symptoms caused by infections of virus or bacteria.

[4] = test system: B16 tumor cells; assay: Animal test of regulating micro-heterology variation (B16 tumor cells inoculated in rats); assay type: in vivo; settings: of 50 rats; 5% aqueous solution i.p., 1 ml, 3 times per day, 7 days
From the text: In control group without the administration of the compound of formula (1), many proliferative corpuscles appeared in at least 40 among 50 rats within 1-3 days after the tumor cells were inoculated; many immature cells appeared within 3-5 days; and visible solid tumors finally appeared within about 10 days.

[5] = test system: B16 tumor cells; assay: Cytological test of regulating micro-heterology variation; assay type: cell-based; settings: final concentration 1 g/100 ml, incomplete 1640 media, cultured more than 48 hours
Protocol: Conventional incomplete 1640 culture media were used for cell culture, and B16 tumor cells (commercially obtained from the tumor cell library of Shanghai Institute of Cytobiology) were inoculated on said media. After being continuously cultured for more than 48 hours, the micro-heterology variation of cells and the control effects of N-acetyl-D-glucosamine thereon were observed under a condition where metabolic wastes affected the growth environment. […] The control cells cultured without N-acetyl-D-glucosamine could not proliferate on the same culture media under same conditions.

SMILES | rabbits survived [1] | dosage at which acute toxicosis reaction had not appeared [2] | bio-wave pattern of colony growth on LB plate [3] | number of rats in which solid tumor did not appear [4] | cell proliferation under metabolic waste conditions [5] | inflammation of nasal mucosa and respiratory tract [1] | systemic toxic symptoms ([1]; after one week)
CC(=O)N[C@H]1C(O)O[C@H](CO)[C@@H](O)[C@@H]1O.Cl (stereo partly drawn) [N-acetyl-D-glucosamine hydrochloride] | 7/10 | – | – | – | – | – | –
CC(=O)N[C@@H]1[C@@H](O)[C@H](O)[C@@H](CO)O[C@H]1O [N-acetyl-D-glucosamine] | 10 rabbits | more than 2 g/kg | not only concentric rings with an interval of 3 hours, but also many fine waves on each ring | 45 rats | the cell number stably increased with the culture time | inflammations were alleviated | symptoms were alleviated
